Broadly, the residual activity is the signal under treatment as a percentage of the control signal.

Chain of TEK (human) (Q02763 whole entry, looked up): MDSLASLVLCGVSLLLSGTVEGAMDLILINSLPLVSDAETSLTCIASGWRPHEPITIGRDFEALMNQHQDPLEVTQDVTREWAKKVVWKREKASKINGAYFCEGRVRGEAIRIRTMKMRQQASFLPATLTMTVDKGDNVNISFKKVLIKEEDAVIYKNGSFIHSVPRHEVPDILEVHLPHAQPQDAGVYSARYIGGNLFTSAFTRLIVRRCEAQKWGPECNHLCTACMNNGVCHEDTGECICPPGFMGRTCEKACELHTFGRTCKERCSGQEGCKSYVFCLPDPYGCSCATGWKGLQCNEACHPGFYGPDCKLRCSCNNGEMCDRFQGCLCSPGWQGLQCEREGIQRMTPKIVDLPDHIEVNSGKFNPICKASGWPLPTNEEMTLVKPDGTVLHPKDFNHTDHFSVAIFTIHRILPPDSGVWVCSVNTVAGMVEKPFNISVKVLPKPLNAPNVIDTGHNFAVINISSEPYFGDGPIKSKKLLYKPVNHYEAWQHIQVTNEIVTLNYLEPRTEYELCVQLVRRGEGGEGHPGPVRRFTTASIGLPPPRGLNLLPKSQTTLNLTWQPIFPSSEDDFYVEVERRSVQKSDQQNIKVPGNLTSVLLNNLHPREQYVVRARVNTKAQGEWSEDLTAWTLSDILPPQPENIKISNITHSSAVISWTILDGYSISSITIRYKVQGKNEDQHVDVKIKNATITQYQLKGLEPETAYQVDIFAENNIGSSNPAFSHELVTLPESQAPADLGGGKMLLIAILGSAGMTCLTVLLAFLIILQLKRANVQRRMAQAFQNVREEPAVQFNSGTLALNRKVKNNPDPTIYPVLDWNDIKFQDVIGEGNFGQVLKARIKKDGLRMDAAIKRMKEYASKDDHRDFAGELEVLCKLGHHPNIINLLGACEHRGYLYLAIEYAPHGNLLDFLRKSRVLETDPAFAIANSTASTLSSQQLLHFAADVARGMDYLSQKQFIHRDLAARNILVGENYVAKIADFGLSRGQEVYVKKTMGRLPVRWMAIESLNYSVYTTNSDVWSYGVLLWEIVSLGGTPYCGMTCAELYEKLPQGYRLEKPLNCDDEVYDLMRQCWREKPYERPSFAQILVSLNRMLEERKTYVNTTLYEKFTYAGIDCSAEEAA

In one experiment the target is PRKCG (human) (UniProt P05129). Nature of the experiment: radiometric filter-binding kinase assay. The following applies: compound 1.0 µM.
Take `C=CC(=O)N1CCC[C@@H](n2nc(-c3ccc(Oc4ccccc4)cc3)c3c(N)ncnc32)C1`: the residual activity amounted to 104%.
The same measure, in the same setting: the result for `NC(=O)c1cc(-c2ccnc(NC3CCCCC3)c2)nc(N2CCNCC2)c1` reads 103%; that for `Cc1ccc(=O)n(-c2ccccc2)c1`, 99%.
The same measure, in the same setting: the result for `O=C(N[C@@H](COc1ccc2[nH]c(=O)[nH]c2c1)c1ccccc1)c1cccn(Cc2ccc(F)c(F)c2)c1=O` reads 103%; that for `COc1ccc(-n2ncc3cnc(Nc4cc(OC)c(OC)c(OCCCN5CCN(C)CC5)c4)nc32)cc1`, 71%.

Staying with this experiment, now noted: compound 10.0 µM.
On to `C=CC(=O)N1CCC[C@@H](n2nc(-c3ccc(Oc4ccccc4)cc3)c3c(N)ncnc32)C1`, for which the residual activity was 99%.
As for `NC(=O)c1cc(-c2ccnc(NC3CCCCC3)c2)nc(N2CCNCC2)c1`, the residual activity amounted to 115%.
As to `Cc1ccc(=O)n(-c2ccccc2)c1`, the residual activity came to 94%.

Another experiment addresses TEK (human) (UniProt Q02763). Nature of the experiment: radiometric filter-binding kinase assay. The following applies: compound 0.1 µM.
In the case of `C=CC(=O)N1CCC[C@@H](n2nc(-c3ccc(Oc4ccccc4)cc3)c3c(N)ncnc32)C1`, the residual activity came to 71%.
For the compound `NC(=O)c1cc(-c2ccnc(NC3CCCCC3)c2)nc(N2CCNCC2)c1`, the residual activity was 101%.
Still for that read-out and setting: to `O=C(N[C@@H](COc1ccc2[nH]c(=O)[nH]c2c1)c1ccccc1)c1cccn(Cc2ccc(F)c(F)c2)c1=O` belongs 104%.
Same read-out and setting: the result for `COc1ccc(-n2ncc3cnc(Nc4cc(OC)c(OC)c(OCCCN5CCN(C)CC5)c4)nc32)cc1` reads 60%.

Staying with this experiment, now noted: compound 1.0 µM.
Turning to `C=CC(=O)N1CCC[C@@H](n2nc(-c3ccc(Oc4ccccc4)cc3)c3c(N)ncnc32)C1`, the residual activity is 34%.
For `NC(=O)c1cc(-c2ccnc(NC3CCCCC3)c2)nc(N2CCNCC2)c1`, the residual activity was found to be 111%.
Regarding `Cc1ccc(=O)n(-c2ccccc2)c1`, the residual activity was found to be 110%.
Turning to `O=C(N[C@@H](COc1ccc2[nH]c(=O)[nH]c2c1)c1ccccc1)c1cccn(Cc2ccc(F)c(F)c2)c1=O`, the residual activity worked out at 100%.
As to `COc1ccc(-n2ncc3cnc(Nc4cc(OC)c(OC)c(OCCCN5CCN(C)CC5)c4)nc32)cc1`, the residual activity amounted to 11%.

Still in this experiment, the particulars now being: compound 10.0 µM.
As to `C=CC(=O)N1CCC[C@@H](n2nc(-c3ccc(Oc4ccccc4)cc3)c3c(N)ncnc32)C1`, the residual activity was found to be 9%.
`NC(=O)c1cc(-c2ccnc(NC3CCCCC3)c2)nc(N2CCNCC2)c1`: the residual activity was determined as 84%.
Still for that read-out and setting: the result for `Cc1ccc(=O)n(-c2ccccc2)c1` reads 118%.
`O=C(N[C@@H](COc1ccc2[nH]c(=O)[nH]c2c1)c1ccccc1)c1cccn(Cc2ccc(F)c(F)c2)c1=O`: the residual activity amounted to 96%.

The target of the next experiment is TSSK1B (human) (UniProt Q9BXA7). Nature of the experiment: radiometric filter-binding kinase assay. The following applies: compound 0.1 µM.
Chain of TSSK1B (human) (Q9BXA7 whole entry, looked up): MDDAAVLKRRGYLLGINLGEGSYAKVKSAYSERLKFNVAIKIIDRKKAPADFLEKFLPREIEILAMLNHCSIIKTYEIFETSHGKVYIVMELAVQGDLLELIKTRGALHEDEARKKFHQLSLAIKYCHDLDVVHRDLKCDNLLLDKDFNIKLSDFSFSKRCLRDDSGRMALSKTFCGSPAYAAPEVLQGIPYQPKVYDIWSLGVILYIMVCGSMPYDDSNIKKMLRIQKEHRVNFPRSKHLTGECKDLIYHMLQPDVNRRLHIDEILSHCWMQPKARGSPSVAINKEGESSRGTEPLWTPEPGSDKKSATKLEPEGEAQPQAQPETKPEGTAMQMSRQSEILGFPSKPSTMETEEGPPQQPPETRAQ
Turning to `C=CC(=O)N1CCC[C@@H](n2nc(-c3ccc(Oc4ccccc4)cc3)c3c(N)ncnc32)C1`, the residual activity turned out to be 105%.
Regarding `NC(=O)c1cc(-c2ccnc(NC3CCCCC3)c2)nc(N2CCNCC2)c1`, the residual activity was determined as 84%.
On to `O=C(N[C@@H](COc1ccc2[nH]c(=O)[nH]c2c1)c1ccccc1)c1cccn(Cc2ccc(F)c(F)c2)c1=O`, for which the residual activity is 93%.
Consider `COc1ccc(-n2ncc3cnc(Nc4cc(OC)c(OC)c(OCCCN5CCN(C)CC5)c4)nc32)cc1`, for which the residual activity was 31%.

The experiment is the same for the next values; noted with them: compound 1.0 µM.
In the case of `C=CC(=O)N1CCC[C@@H](n2nc(-c3ccc(Oc4ccccc4)cc3)c3c(N)ncnc32)C1`, the residual activity came out at 108%.
For the compound `NC(=O)c1cc(-c2ccnc(NC3CCCCC3)c2)nc(N2CCNCC2)c1`, the residual activity was 56%.
Take `Cc1ccc(=O)n(-c2ccccc2)c1`: the residual activity came out at 87%.
For `O=C(N[C@@H](COc1ccc2[nH]c(=O)[nH]c2c1)c1ccccc1)c1cccn(Cc2ccc(F)c(F)c2)c1=O`, the residual activity stood at 103%.
On the same count and under the same terms, the result for `COc1ccc(-n2ncc3cnc(Nc4cc(OC)c(OC)c(OCCCN5CCN(C)CC5)c4)nc32)cc1` reads 5%.

Staying with this experiment, now noted: compound 10.0 µM.
In the case of `C=CC(=O)N1CCC[C@@H](n2nc(-c3ccc(Oc4ccccc4)cc3)c3c(N)ncnc32)C1`, the residual activity came out at 68%.
For `NC(=O)c1cc(-c2ccnc(NC3CCCCC3)c2)nc(N2CCNCC2)c1`, the residual activity was found to be 12%.
Same read-out and setting: to `Cc1ccc(=O)n(-c2ccccc2)c1` belongs 91%.
On to `O=C(N[C@@H](COc1ccc2[nH]c(=O)[nH]c2c1)c1ccccc1)c1cccn(Cc2ccc(F)c(F)c2)c1=O`, for which the residual activity was determined as 86%.

The target in the next experiment is IRAK1 (human) (UniProt P51617). Nature of the experiment: radiometric filter-binding kinase assay. The following applies: compound 0.1 µM.
Chain of IRAK1 (human) (P51617 whole entry, looked up): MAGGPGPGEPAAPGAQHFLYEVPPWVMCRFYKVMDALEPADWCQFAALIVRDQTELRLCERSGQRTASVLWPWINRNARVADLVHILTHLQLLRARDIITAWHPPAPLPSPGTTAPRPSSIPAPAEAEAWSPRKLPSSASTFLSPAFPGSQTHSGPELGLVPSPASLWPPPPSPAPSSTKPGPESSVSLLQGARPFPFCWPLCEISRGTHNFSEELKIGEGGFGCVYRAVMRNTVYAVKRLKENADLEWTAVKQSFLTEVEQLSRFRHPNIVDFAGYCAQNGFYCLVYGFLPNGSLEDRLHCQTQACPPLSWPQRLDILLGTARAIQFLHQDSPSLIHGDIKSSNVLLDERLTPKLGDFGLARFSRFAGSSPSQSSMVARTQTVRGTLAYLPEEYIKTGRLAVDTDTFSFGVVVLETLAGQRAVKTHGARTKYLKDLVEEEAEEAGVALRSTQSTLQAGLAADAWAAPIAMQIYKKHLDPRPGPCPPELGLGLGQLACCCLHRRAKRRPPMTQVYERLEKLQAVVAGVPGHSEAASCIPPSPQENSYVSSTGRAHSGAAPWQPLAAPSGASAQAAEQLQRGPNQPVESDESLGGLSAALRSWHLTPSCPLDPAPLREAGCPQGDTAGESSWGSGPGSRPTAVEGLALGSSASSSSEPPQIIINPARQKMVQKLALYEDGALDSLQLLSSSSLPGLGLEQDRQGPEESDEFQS
Take `C=CC(=O)N1CCC[C@@H](n2nc(-c3ccc(Oc4ccccc4)cc3)c3c(N)ncnc32)C1`: the residual activity stood at 108%.
As for `NC(=O)c1cc(-c2ccnc(NC3CCCCC3)c2)nc(N2CCNCC2)c1`, the residual activity stood at 92%.
With `O=C(N[C@@H](COc1ccc2[nH]c(=O)[nH]c2c1)c1ccccc1)c1cccn(Cc2ccc(F)c(F)c2)c1=O`, the residual activity worked out at 117%.
As for `COc1ccc(-n2ncc3cnc(Nc4cc(OC)c(OC)c(OCCCN5CCN(C)CC5)c4)nc32)cc1`, the residual activity turned out to be 19%.

Staying with this experiment, now noted: compound 1.0 µM.
As for `C=CC(=O)N1CCC[C@@H](n2nc(-c3ccc(Oc4ccccc4)cc3)c3c(N)ncnc32)C1`, the residual activity came to 115%.
On the same count and under the same terms, the result for `Cc1ccc(=O)n(-c2ccccc2)c1` reads 105%.
On the same count and under the same terms, the result for `O=C(N[C@@H](COc1ccc2[nH]c(=O)[nH]c2c1)c1ccccc1)c1cccn(Cc2ccc(F)c(F)c2)c1=O` reads 118%; that for `COc1ccc(-n2ncc3cnc(Nc4cc(OC)c(OC)c(OCCCN5CCN(C)CC5)c4)nc32)cc1`, 5%.

Staying with this experiment, now noted: compound 10.0 µM.
Turning to `NC(=O)c1cc(-c2ccnc(NC3CCCCC3)c2)nc(N2CCNCC2)c1`, the residual activity amounted to 87%.
With `O=C(N[C@@H](COc1ccc2[nH]c(=O)[nH]c2c1)c1ccccc1)c1cccn(Cc2ccc(F)c(F)c2)c1=O`, the residual activity was determined as 108%.

The next experiment deals with TTBK1 (human) (UniProt Q5TCY1). The experiment can be described thus: radiometric filter-binding kinase assay. The following applies: compound 0.1 µM.
Chain of TTBK1 (human) (Q5TCY1 whole entry, looked up): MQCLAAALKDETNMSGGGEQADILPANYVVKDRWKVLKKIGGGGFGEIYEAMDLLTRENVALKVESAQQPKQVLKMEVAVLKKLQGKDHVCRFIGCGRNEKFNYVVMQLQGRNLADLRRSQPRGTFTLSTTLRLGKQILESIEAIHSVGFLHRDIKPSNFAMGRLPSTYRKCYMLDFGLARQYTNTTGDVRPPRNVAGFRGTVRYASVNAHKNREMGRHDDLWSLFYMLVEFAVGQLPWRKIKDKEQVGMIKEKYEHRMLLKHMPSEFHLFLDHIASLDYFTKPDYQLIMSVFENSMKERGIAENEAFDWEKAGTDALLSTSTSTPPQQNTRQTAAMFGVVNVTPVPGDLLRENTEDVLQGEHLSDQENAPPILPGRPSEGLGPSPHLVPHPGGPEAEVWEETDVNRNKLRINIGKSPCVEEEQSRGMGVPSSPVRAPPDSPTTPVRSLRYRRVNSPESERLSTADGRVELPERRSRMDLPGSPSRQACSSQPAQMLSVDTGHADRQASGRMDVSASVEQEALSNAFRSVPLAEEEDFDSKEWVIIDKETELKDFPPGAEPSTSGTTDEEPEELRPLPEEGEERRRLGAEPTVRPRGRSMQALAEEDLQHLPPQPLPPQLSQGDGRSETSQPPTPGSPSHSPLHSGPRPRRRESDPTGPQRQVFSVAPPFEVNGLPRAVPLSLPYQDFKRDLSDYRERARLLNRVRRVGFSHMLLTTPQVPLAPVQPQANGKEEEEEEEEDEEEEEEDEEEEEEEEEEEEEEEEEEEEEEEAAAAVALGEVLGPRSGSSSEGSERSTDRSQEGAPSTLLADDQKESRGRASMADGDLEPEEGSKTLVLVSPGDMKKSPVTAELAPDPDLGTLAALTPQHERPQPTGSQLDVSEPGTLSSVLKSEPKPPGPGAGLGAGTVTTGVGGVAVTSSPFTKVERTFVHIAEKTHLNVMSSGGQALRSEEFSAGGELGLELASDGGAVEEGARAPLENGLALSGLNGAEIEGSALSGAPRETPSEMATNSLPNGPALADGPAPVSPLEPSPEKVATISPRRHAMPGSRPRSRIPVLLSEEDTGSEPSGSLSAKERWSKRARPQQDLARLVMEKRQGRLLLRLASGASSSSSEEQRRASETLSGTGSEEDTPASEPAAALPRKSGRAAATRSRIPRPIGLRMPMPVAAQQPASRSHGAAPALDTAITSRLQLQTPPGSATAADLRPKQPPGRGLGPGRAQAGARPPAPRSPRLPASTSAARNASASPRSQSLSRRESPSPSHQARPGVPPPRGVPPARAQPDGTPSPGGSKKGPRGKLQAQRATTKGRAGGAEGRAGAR
For `C=CC(=O)N1CCC[C@@H](n2nc(-c3ccc(Oc4ccccc4)cc3)c3c(N)ncnc32)C1`, the residual activity was determined as 78%.
